The results in this text go back to patent publication US20080248511A1, “METHODS TO QUENCH LIGHT FROM OPTICAL REACTIONS” (priority 2007, published 2008).

Common to all, as to type: biochemical
Assay [1] deals with T1, firefly luciferase (Photinus pyralis, UniProt P08659). The assay can be described thus: Quaternary ammonium/phosphonium detergent screen, firefly luciferase (Example 5). The conditions noted are these: final conc. 0.03% detergent; Tergitol NP-9 present.
In assay [2] the target is T1, firefly luciferase. Described as above. As to conditions: final conc. 0.10% detergent; Tergitol NP-9 present. As for the experimental part: (§1) Each detergent was added at 0.2% to a reagent solution containing 50 mM Tricine pH 8.3, 3.5 mM MgSO4, 1 mM CDTA, 30 mM thiourea and 0.5% Tergitol NP-9. This solution or one not containing a detergent inhibitor was used to resuspend the Bright-Glo™ luciferin substrate (Promega).
(§2) The luciferase reactions were initiated by adding 100 μl of the firefly luciferase or Renilla luciferase enzyme solutions to 100 μl of reagent solution. The reactions were performed as described above. […] The detergent concentrations listed refer to the final concentration in the reaction.

For assay [3], the target named is T2, Renilla luciferase (Renilla reniformis, UniProt P27652).
T2 sequence (P27652 1-311): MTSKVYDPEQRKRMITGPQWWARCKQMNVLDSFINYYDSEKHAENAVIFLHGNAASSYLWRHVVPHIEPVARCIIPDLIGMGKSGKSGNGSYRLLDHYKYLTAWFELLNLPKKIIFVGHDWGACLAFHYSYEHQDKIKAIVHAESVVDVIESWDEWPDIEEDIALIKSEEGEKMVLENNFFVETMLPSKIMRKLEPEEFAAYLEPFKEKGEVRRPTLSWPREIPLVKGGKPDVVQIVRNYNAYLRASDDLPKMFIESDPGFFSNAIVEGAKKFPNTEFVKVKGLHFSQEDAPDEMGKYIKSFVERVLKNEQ
The experiment in a line: Quaternary ammonium/phosphonium detergent screen, Renilla luciferase (Example 5). As to conditions: final conc. 0.10% detergent. As for the experimental part: as §1, §2

Assay [4] deals with T2, Renilla luciferase. The assay is described as above. As to conditions: final conc. 0.03% detergent.
Assay [5] has as its target T2, Renilla luciferase. The assay can be described thus: biochemical. The conditions noted are these: 0.5% detergent in Renilla Luciferase Assay Reagent; read-out: Retained Renilla Luciferase Luminescence (%). The method, then: The retained luminescence for each luciferase was calculated by dividing the luminescence in the presence of the detergent by the luminescence in the absence of the test detergent. The selectivity value for each of the test detergents was determined by dividing the retained firefly luciferase luminescence by the retained Renilla luciferase luminescence.
A set of detergents (Table 2; Sigma-Aldrich) was added at 0.5% (from a 5% or 10% stock solution) to either Luciferase Assay Reagent (Promega) or Renilla Luciferase Assay Reagent (Promega) and allowed to equilibrate at room temperature.
The firefly luciferase and Renilla luciferase enzymes were diluted as follows. Firefly luciferase was diluted to 14 ng/ml in Phosphate Buffered Saline (PBS) containing 0.1% of the protein carrier Prionex® (Pentapharm). Renilla luciferase was diluted to 10 ng/ml in 1× Renilla Luciferase Lysis Buffer (Promega) containing 0.1% Prionex®. The Renilla Luciferase Lysis Buffer […] detergent micelles when using the Renilla Luciferase Assay Reagent. In the absence of other detergents, this prevents sequestering of coelenterazine which inhibits Renilla luciferase-mediated luminescence.
The luciferase reactions were initiated by adding 40 μl of either the firefly or Renilla luciferase enzyme solution to 200 μl of the appropriate reagent solution (firefly luciferase enzyme solution+firefly luciferase reagent solution or Renilla luciferase enzyme solution+Renilla luciferase reagent solution, respectively). The reactions were performed in an opaque white, 96-well plate and luminescence was measured for 0.5 seconds per well using a Turner BioSystems Veritas™ Microplate luminometer. The retained firefly luciferase and Renilla luciferase luminescence, as well as the selectivity values for each detergent, were calculated (Table 2).

For assay [6], the target named is T2, Renilla luciferase. The experiment in a line: Detergent titration with Tergitol NP-9, digitonin or no lysing agent, Renilla luciferase (Example 4). As to conditions: for remaining activity at 0.0005 % / remaining activity at 0.005 % / remaining activity at 0.05 %: read-out: Relative Renilla Luc Intensity. As for the experimental part: Renilla luciferase-mediated luminescence was measured from samples containing 9.6 mM phosphate buffer pH 6.8, 2.7 mM KCl, 137 mM NaCl (in PBS), 0.1% gelatin, 75 nM coelentrazine (Promega) and 10.2 ng/ml Renilla luciferase. Reactions contained either no lysing agent, 0.5% Tergitol NP-9 or 20 μg/ml digitonin. The detergents to be tested were titrated to 0.05%, 0.005% or 0.0005% in the reactions prior to the addition of the Renilla luciferase. Renilla luciferase-mediated luminescence was measured as described herein.

The target of assay [7] is T1, firefly luciferase. The experiment in a line: Detergent titration with Tergitol NP-9, digitonin or no lysing agent, firefly luciferase (Example 4). As to conditions: read-out: Relative Firefly Luc Intensity; for remaining activity at 0.0005 %: 0.0005% detergent; for remaining activity at 0.005 %: 0.0050% detergent; for remaining activity at 0.05 %: 0.0500% detergent. The method, then: For measurement of firefly luciferase-mediated luminescence, a solution containing 110 mM HEPES pH 7.5, 8 mM MgSO4, 0.05% gelatin, 7.35 ng/ml firefly luciferase (QuantiLum® Luciferase; Promega) and the content of the Steady-Glo Luciferase Substrate (Promega) at the equivalent of 1×, As in the Renilla luciferase reactions, reactions contained either no lysing agent, 0.5% Tergitol NP-9 or 20 μg/ml digitonin. The same detergents were titrated as described above and firefly luciferase-mediated luminescence was measured.

The target of assay [8] is T2, Renilla luciferase. The experiment in a line: Non-detergent compound screen, Renilla luciferase (Example 6). As to conditions: for remaining activity at 10 µM / remaining activity at 100 µM / remaining activity at 1000 µM / Retained Renilla Luciferase Value (%): 0.5% Tergitol NP-9, 0.03% BDDABr; for remaining activity at 10 µM / remaining activity at 100 µM / remaining activity at 1000 µM: read-out: Retained Renilla Luciferase Value (%). As for the experimental part: (§3) Each compound was diluted into 200 mM MOPS pH 6.7, 4 μM MgSO4, 1 mM CDTA, 0.5% Tergitol NP-9, 0.05% Mazu-DF-204, 0.03% BDDABr, 30 mM thiourea, 1 mM bis-(2-mercaptoethylsulfone) (BMS), 4 μM CoA, and 1 μM 5-fluoroluciferin. Just prior to the luciferase reaction, 0.1% Prionex® (Pentapharm) and 2.9 μM coelenterazine-h (Promega) were added to each solution.
(§4) The firefly luciferase and Renilla luciferase enzymes were diluted as described in Examples 3 and 5. The luciferase reactions were initiated by adding 50 μl of the firefly luciferase and Renilla luciferase enzyme solution to 50 μl of reagent solution. The reactions were performed as described above. The retained Renilla and firefly luciferase-mediated luminescence and selectivity values for each inhibitor tested are listed in Table 6.

For assay [9], the target named is T1, firefly luciferase. The experiment in a line: Non-detergent compound screen, firefly luciferase (Example 6). The conditions noted are these: 0.5% Tergitol NP-9, 0.03% BDDABr; for remaining activity at 10 µM / remaining activity at 100 µM / remaining activity at 1000 µM: read-out: Retained Firefly Luciferase Value (%). As for the experimental part:
as §3, §4

Like-named read-outs stand apart in the source and are kept apart here.

T1 sequence (P08659 whole entry): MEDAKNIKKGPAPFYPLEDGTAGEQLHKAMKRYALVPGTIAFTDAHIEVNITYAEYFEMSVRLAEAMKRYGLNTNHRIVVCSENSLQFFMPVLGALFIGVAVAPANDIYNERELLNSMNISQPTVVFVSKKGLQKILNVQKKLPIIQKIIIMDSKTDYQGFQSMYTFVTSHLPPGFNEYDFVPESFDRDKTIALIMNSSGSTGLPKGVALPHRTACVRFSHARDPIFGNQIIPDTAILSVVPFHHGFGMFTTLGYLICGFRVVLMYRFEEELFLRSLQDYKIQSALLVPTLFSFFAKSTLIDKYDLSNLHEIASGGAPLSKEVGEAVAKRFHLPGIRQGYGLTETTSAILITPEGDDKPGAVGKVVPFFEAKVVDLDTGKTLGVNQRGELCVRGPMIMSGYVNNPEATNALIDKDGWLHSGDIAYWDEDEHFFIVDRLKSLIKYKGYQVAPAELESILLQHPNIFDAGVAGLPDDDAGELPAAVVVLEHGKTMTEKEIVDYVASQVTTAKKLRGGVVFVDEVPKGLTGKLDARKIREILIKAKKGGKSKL

For the molecule `CC1(C)C=Cc2ccccc2[N+]1(C)C.[I-]` [1,1,2,2-Tetramethyl-1,2-dihydor-quinolynium iodide], the “Retained Firefly Luciferase Luminescence (%)” value turned out to be 87% on firefly luciferase [1] and 74% at firefly luciferase [2]. Besides, the “Selectivity Value” at Renilla luciferase [3] was determined as 1.2; on Renilla luciferase [4] it was 1.0. Further, the “Retained Renilla Luciferase Luminescence (%)” value came to 89% at Renilla luciferase [3] (Tergitol NP-9 present) and 88% on Renilla luciferase [4] (Tergitol NP-9 present).

Turning to `CCCCCCCCCCCCCCCC[N+](C)(C)C.[Cl-]` [Cetyltrimethylammonium chloride], the remaining activity at 0.5 % on Renilla luciferase [5] is 5.23%. The “Selective Inhibition (Ff Luc Inh/Ren Luc Inh)” value is 12 on Renilla luciferase [6] (0.0005% detergent, Dig); 1.0 at Renilla luciferase [6] (0.0005% detergent, Terg); 13 on Renilla luciferase [6] (0.0005% detergent, Water); 2829 on Renilla luciferase [6] (0.0050% detergent, Dig); 1.3 on Renilla luciferase [6] (0.0050% detergent, Terg); 3848 on Renilla luciferase [6] (0.0050% detergent, Water). Also, the “Selective Inhibition (Ff Luc Inh/Ren Luc Inh)” value worked out at 1395 on Renilla luciferase [6] (0.0500% detergent, Dig); 6 on Renilla luciferase [6] (0.0500% detergent, Terg); 1611 at Renilla luciferase [6] (0.0500% detergent, Water). Moreover, the remaining activity at 0.0005 % on Renilla luciferase [6] (0.0005% detergent, Dig) turned out to be 14%; on Renilla luciferase [6] (0.0005% detergent, Terg), 95%; on Renilla luciferase [6] (0.0005% detergent, Water), 13%; on firefly luciferase [7] (Dig), 164%; at firefly luciferase [7] (Terg), 98%; on firefly luciferase [7] (Water), 179%. Moreover, the remaining activity at 0.005 % is 0.02% on Renilla luciferase [6] (0.0050% detergent, Dig); 71% at Renilla luciferase [6] (0.0050% detergent, Terg); 0.02% on Renilla luciferase [6] (0.0050% detergent, Water); 65% on firefly luciferase [7] (Dig); 94% at firefly luciferase [7] (Terg); 70% at firefly luciferase [7] (Water). The remaining activity at 0.05 % on Renilla luciferase [6] (0.0500% (w:v) detergent, Terg (0.5% Tergitol NP-9)) amounted to 6%; on Renilla luciferase [6] (0.0500% detergent, Dig (20 μg/ml digitonin)), 0.02%; at Renilla luciferase [6] (0.0500% detergent, Water (no lysing agent)), 0.02%; on firefly luciferase [7] (Dig (20 μg/ml digitonin)) it was 29%; at firefly luciferase [7] (Terg (0.5% Tergitol NP-9)), 38%; on firefly luciferase [7] (Water (no lysing agent)) it was 31%.

As for `COc1cc(CNC(=O)/C=C/c2ccc3[nH]cc(CCN(C)C)c3c2)cc(OC)c1OC` [Compound 3072, (E)-3-(3-(2-(dimethylamino)ethyl)-1H-indol-5-yl)-N-(3,4,5-trimethoxybenzyl)acrylamide], the “inhibitor of Renilla luciferase, grade in words” value against Renilla luciferase [8] is recorded as “inhibitors of Renilla luciferase”. Moreover, the entries for the “Selectivity Value” at Renilla luciferase [8] (inhibitor 10 μM), on Renilla luciferase [8] (inhibitor 100 μM) and at Renilla luciferase [8] (inhibitor 1000 μM) were 1, 1.1 and 1.8, respectively. Besides, the remaining activity at 10 µM at Renilla luciferase [8] (inhibitor 10 μM) and at firefly luciferase [9] (inhibitor 10 μM) was 101% throughout. Also, the remaining activity at 100 µM was 95% on Renilla luciferase [8] (inhibitor 100 μM) and 101% at firefly luciferase [9] (inhibitor 100 μM). In addition, the remaining activity at 1000 µM came out at 55.2% on Renilla luciferase [8] (inhibitor 1000 μM) and 101% at firefly luciferase [9] (inhibitor 1000 μM).

As for `COc1cc(OC)c(CNC(=O)/C=C/c2ccc3[nH]cc(CCN(C)C)c3c2)c(OC)c1` [Compound 3073, (E)-3-(3-(2-(dimethylamino)ethyl)-1H-indol-5-yl)-N-(2,4,6-trimethoxybenzyl)acrylamide], the “inhibitor of Renilla luciferase, grade in words” value on Renilla luciferase [8] is recorded as “inhibitors of Renilla luciferase”. Moreover, the “Selectivity Value” came to 0.99 at Renilla luciferase [8] (inhibitor 10 μM), 1.5 on Renilla luciferase [8] (inhibitor 100 μM) and 2.9 at Renilla luciferase [8] (inhibitor 1000 μM). Further, the figures for the remaining activity at 10 µM at Renilla luciferase [8] (inhibitor 10 μM) and on firefly luciferase [9] (inhibitor 10 μM) were 102% and 101%, respectively. The remaining activity at 100 µM is 87% on Renilla luciferase [8] (inhibitor 100 μM) and 100% on firefly luciferase [9] (inhibitor 100 μM). In addition, the remaining activity at 1000 µM stood at 34.5% on Renilla luciferase [8] (inhibitor 1000 μM) and 101% at firefly luciferase [9] (inhibitor 1000 μM).

Consider `CCCCCC[N+](C)(C)CCc1c[nH]c2ccc(/C=C/C(=O)NCc3ccc(OC)cc3)cc12.[I-]` [Compound 3078, (E)-N-(2-(5-(3-(4-methoxybenzylamino)-3-oxyprop-1-enyl)-1H-indol-3-yl)ethyl)-N,N-dimethylhexan-1-aminium iodide], for which the entries for the “Selectivity Value” at Renilla luciferase [8] (inhibitor 10 μM), at Renilla luciferase [8] (inhibitor 100 μM) and at Renilla luciferase [8] (inhibitor 1000 μM) were 20, 100 and 990, respectively. Moreover, the “Retained Renilla Luciferase Value (%)” value came to 5.0% on Renilla luciferase [8] (inhibitor 10 μM), 1.0% at Renilla luciferase [8] (inhibitor 100 μM) and 0.1% at Renilla luciferase [8] (inhibitor 1000 μM). For the same molecule, the results for the “Retained Firefly Luciferase Value (%)” value at firefly luciferase [9] (inhibitor 10 μM), on firefly luciferase [9] (inhibitor 100 μM) and on firefly luciferase [9] (inhibitor 1000 μM) were 100%, 100% and 99%, respectively.
